Assay results reported in publication PMC7366380, “Discovery of a Potent and Selective Covalent Inhibitor and Activity-Based Probe for the Deubiquitylating Enzyme UCHL1, with Antifibrotic Activity” (Journal of the American Chemical Society, 2020).

Legend:
[1] = test system: primary human bronchial fibroblasts from IPF patients (TGF-β1-triggered αSMA); assay: Fibroblast-to-myofibroblast transition (FMT) assay, αSMA by high content analysis
[2] = FMT assay, cell number (DAPI nuclei count); settings: human

- EC50 at 3 days [2]: ~18 µM
Structure (SMILES): COC(=O)c1ccc2c(c1)NC(=O)/C2=C(\Nc1ccc(N(C)C(=O)CN2CCN(C)CC2)cc1)c1ccccc1 [nintedanib, reference compound]
- IC50 ([1]; Homo sapiens, Fibroblast, 72 h, read-out: αSMA inhibition IC50 (95% CI)): 0.28 µM
- αSMA inhibition / transdifferentiation (in words) ([1]; IPF donor fibroblasts, TGF-β1, 3 days, high content imaging): inhibit transdifferentiation
